Experimental data taken from BindingDB's records for doi:10.1016/j.ejmech.2013.09.015 (China Pharmaceutical University, 2013).

Test: Agonist activity at VDR in human HL60 cells assessed as induction of cell differentiation after 96 hrs by NBT reduction assay

SMILES	EC50 [µM]
CCC(CC)(c1ccc(OCC(O)C(C)(C)C)c(C)c1)c1ccc(C(=O)NCCC(=O)O)n1C (stereo not given)	1.6
CCC(CC)(c1ccc(OCC(=O)C(C)(C)C)c(C)c1)c1ccc(C(=O)N[C@@H](CC(=O)O)C(=O)O)n1C	0.41
CCC(CC)(c1ccc(OCC(=O)C(C)(C)C)c(C)c1)c1ccc(C(=O)N[C@@H](C)C(=O)O)n1C	2.63
CCn1c(C(=O)N[C@H](CO)CCO)ccc1C(CC)(CC)c1ccc(OCC(O)C(C)(C)C)c(C)c1 (stereo not given in full)	0.11
CCn1c(C(=O)NCCO)ccc1C(CC)(CC)c1ccc(OCC(O)C(C)(C)C)c(C)c1 (stereo not given)	5.64
CCn1c(C(=O)NCC(=O)OC)ccc1C(CC)(CC)c1ccc(OCC(=O)C(C)(C)C)c(C)c1	1.83
CCC(CC)(c1ccc(OCC(=O)C(C)(C)C)c(C)c1)c1ccc(C(=O)NCCC(=O)OC)n1C	0.79
CCC(CC)(c1ccc(OCC(=O)C(C)(C)C)c(C)c1)c1ccc(C(=O)NCC(=O)OC)n1C	0.023
C=C1/C(=C\C=C2/CCC[C@]3(C)[C@@H]([C@H](C)CC[C@@H](O)C(C)C)CC[C@@H]23)C[C@@H](O)C[C@@H]1O [TACALCITOL]	0.0071

Now from value to compound:

EC50 [µM]	SMILES
0.0041	CCn1c(C(=O)N[C@@H](C)C(=O)O)ccc1C(CC)(CC)c1ccc(OCC(O)C(C)(C)C)c(C)c1 (stereo not given in full)
4.95	CCC(CC)(c1ccc(OCC(O)C(C)(C)C)c(C)c1)c1ccc(C(=O)NCC(=O)O)n1C (stereo not given)
0.0011	CCn1c(C(=O)N[C@@H](C)CO)ccc1C(CC)(CC)c1ccc(OCC(O)C(C)(C)C)c(C)c1 (stereo not given in full)
0.2	CCC(CC)(c1ccc(OCC(O)C(C)(C)C)c(C)c1)c1ccc(C(=O)N[C@H](CO)CCO)n1C (stereo not given in full)
0.57	CCC(CC)(c1ccc(OCC(O)C(C)(C)C)c(C)c1)c1ccc(C(=O)N[C@@H](C)CO)n1C (stereo not given in full)
0.15	CCC(CC)(c1ccc(OCC(O)C(C)(C)C)c(C)c1)c1ccc(C(=O)NCCCO)n1C (stereo not given)
